Results: patent US8299267B2, “(3-hydroxy-4-amino-butan-2-yl) -3- (2-thiazol-2-yl-pyrrolidine-1-carbonyl) benzamide derivatives and related compounds as beta-secretase inhibitors for treating” (CoMentis, Inc., priority 2007, dated 2012)

Experiments:
memapsin 2 = memapsin 2 (Homo sapiens, UniProt P56817); test: Inhibition of memapsin 2 beta-secretase activity toward fluorogenic substrate FS-2; type: biochemical; settings: memapsin 2, pH 4, 37° C., 20 minutes pre-incubation, substrate FS-2; read-out: M2Ki
Protocol: Potency of compounds were determined by measurement of their inhibition of memapsin 2 activity toward a fluorescent substrate. Kinetic inhibition experiments were performed using the procedure as described in Ermolieff, et al. (Biochemistry 39:12450-12456 (2000), the teachings of which are incorporated hereby in their entirety). Briefly, assays were performed at pH 4, 37° C., by pre-incubation of memapsin 2 enzyme with compound for 20 minutes. Activity measurements were initiated by addition of a fluorogenic substrate FS-2 (Bachem Americas, Torrance, Calif.) MCA-SEVNLDAEFK-DNP (SEQ ID NO.: 2). The substrate was derived from 10 amino acids of the human amyloid precursor protein (APP), with the Swedish variant amino acids at the beta-secretase cleavage site. The terminal amino acid was modified from arginine to lysine to facilitate derivatization with a functional group for detection by autofluorescence. The amino acid sequence of the “core” peptide of the substrate is SEVNLDAEFK (SEQ ID NO.: 3). The amino terminus was derivatized with (7-methoxycoumarin-4-yl)acetyl (MCA), and the epsilon amine of the lysine side chain of the terminal residue (K in sequence SEVNLDAEFK (SEQ ID NO.: 4)) was derivatized with 2,4-dinitrophenyl (DNP).

[1] = system: Aβ production in Chinese hamster ovary cells that over-express human APP695 with the London and Swedish mutations; test: Cellular Aβ IC50 determination (Aβ40 sandwich ELISA); type: cell-based; settings: Cricetulus griseus; Aβ40 in CHO cells over-expressing human APP695, 24 h incubation
Protocol: The potency of compounds against memapsin 2 activity was determined in a cellular assay of Aβ production. […] Chinese hamster ovary cells that over-express human APP695 with the London and Swedish mutations were seeded in multi-well plates at 10% confluency. Compounds are dissolved in DMSO to concentrations near 1 mM, and diluted into culture media to a final concentration near 4 μM (final 0.4% DMSO). Compounds were diluted serially and applied to cells in multi-well plates 48 h after seeding. Incubation was continued in 5% CO2 at 37° C. for 24 h. Aliquots were removed and assayed for Aβ40 content using a sandwich ELISA (BioSource International). Amount of Aβ40 over the range of concentration of compounds, relative to control incubations, were fit to a 4-parameter IC50 model.

Chain of memapsin 2 (P56817 46-501): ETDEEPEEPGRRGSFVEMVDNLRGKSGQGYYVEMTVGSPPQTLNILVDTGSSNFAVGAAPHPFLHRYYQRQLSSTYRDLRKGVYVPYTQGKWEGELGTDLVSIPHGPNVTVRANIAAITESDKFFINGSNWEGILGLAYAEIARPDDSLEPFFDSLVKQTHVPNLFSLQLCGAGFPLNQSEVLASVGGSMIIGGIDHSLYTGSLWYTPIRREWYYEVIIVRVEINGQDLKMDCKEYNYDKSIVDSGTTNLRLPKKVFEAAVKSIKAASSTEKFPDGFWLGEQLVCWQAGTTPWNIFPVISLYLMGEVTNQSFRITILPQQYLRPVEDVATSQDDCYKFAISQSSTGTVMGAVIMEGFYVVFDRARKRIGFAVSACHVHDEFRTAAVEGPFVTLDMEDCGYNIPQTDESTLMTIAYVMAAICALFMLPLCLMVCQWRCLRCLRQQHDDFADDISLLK

`Cc1csc([C@H]2CCCN2C(=O)c2cc(C(=O)N[C@@H](Cc3ccccc3)[C@H](O)CNCc3cccc(C(F)(F)F)c3)cc(-c3ncco3)c2)n1` [Compound 28, N-((2S,3R)-3-hydroxy-1-phenyl-4-(3-(trifluoromethyl)benzylamino)butan-2-yl)-3-((R)-2-(4-methylthiazol-2-yl)pyrrolidine-1-carbonyl)-5-(oxazol-2-yl)benzamide] showed a Ki (memapsin 2) of under 100 nM and an IC50 [1] of under 300 nM.

Molecule `Cc1csc([C@H]2CCCN2C(=O)c2cc(C(=O)N[C@@H](Cc3ccccc3)[C@H](O)CNCc3cncc(C(C)C)c3)cc(N(C)C)c2)n1` [Compound 29, 3-(dimethylamino)-N-((2S,3R)-3-hydroxy-4-((5-isopropylpyridin-3-yl)methylamino)-1-phenylbutan-2-yl)-5-((R)-2-(4-methylthiazol-2-yl)pyrrolidine-1-carbonyl)benzamide] has a Ki (memapsin 2) of under 100 nM and an IC50 [1] of under 300 nM.

`Cc1csc([C@H]2CCCN2C(=O)c2cc(C(=O)N[C@@H](Cc3ccccc3)[C@H](O)CNCc3cccc(C(F)(F)F)c3)cc(N(C)C)c2)n1` [Compound 30, 3-(dimethylamino)-N-((2S,3R)-3-hydroxy-1-phenyl-4-(3-(trifluoromethyl)benzylamino)butan-2-yl)-5-((R)-2-(4-methylthiazol-2-yl)pyrrolidine-1-carbonyl)benzamide] showed a Ki (memapsin 2) of under 100 nM and an IC50 [1] of under 300 nM.

`Cc1csc([C@H]2CCCN2C(=O)c2cncc(C(=O)N[C@@H](Cc3ccccc3)[C@H](O)CNCc3cccc(C(F)(F)F)c3)c2)n1` [Compound 31, N-((2S,3R)-3-hydroxy-1-phenyl-4-(3-(trifluoromethyl)benzylamino)butan-2-yl)-5-((R)-2-(4-methylthiazol-2-yl)pyrrolidine-1-carbonyl)nicotinamide] showed a Ki (memapsin 2) of under 100 nM and an IC50 [1] of under 300 nM.

In the case of `Cc1csc([C@H]2CCCN2C(=O)c2cncc(C(=O)N[C@@H](Cc3ccccc3)[C@H](O)CNCc3cccc(C(C)(C)C)c3)c2)n1` [Compound 32, N-((2S,3R)-4-(3-tert-butylbenzylamino)-3-hydroxy-1-phenylbutan-2-yl)-5-((R)-2-(4-methylthiazol-2-yl)pyrrolidine-1-carbonyl)nicotinamide], the Ki (memapsin 2) is reported as 101 to 200 nM and the IC50 [1] is reported as under 300 nM.

Molecule `Cc1csc([C@H]2CCCN2C(=O)c2cc(C(=O)N[C@@H](Cc3ccccc3)[C@H](O)CNCc3cncc(C(C)C)c3)cc(-c3cnco3)c2)n1` [Compound 33, N-((2S,3R)-3-hydroxy-4-((5-isopropylpyridin-3-yl)methylamino)-1-phenylbutan-2-yl)-3-((R)-2-(4-methylthiazol-2-yl)pyrrolidine-1-carbonyl)-5-(oxazol-5-yl)benzamide] has a Ki (memapsin 2) of under 100 nM and an IC50 [1] of under 300 nM.

`Cc1coc([C@H]2CCCN2C(=O)c2cccc(C(=O)N[C@@H](Cc3ccccc3)[C@H](O)CNCc3cncc(C(C)C)c3)c2)n1` [Compound 34, N-((2S,3R)-3-hydroxy-4-((5-isopropylpyridin-3-yl)methylamino)-1-phenylbutan-2-yl)-3-((R)-2-(4-methyloxazol-2-yl)pyrrolidine-1-carbonyl)benzamide] showed a Ki (memapsin 2) of under 100 nM and an IC50 [1] of under 300 nM.

Work on `Cc1coc([C@H]2CCCN2C(=O)c2cccc(C(=O)N[C@@H](Cc3ccccc3)[C@H](O)CNCc3cccc(C(F)(F)F)c3)c2)n1` [Compound 35, N-((2S,3R)-3-hydroxy-1-phenyl-4-(3-(trifluoromethyl)benzylamino)butan-2-yl)-3-((R)-2-(4-methyloxazol-2-yl)pyrrolidine-1-carbonyl)benzamide] yielded a Ki (memapsin 2) of under 100 nM and an IC50 [1] of under 300 nM.

`Cc1csc([C@H]2CCCN2C(=O)c2cc(C(=O)N[C@@H](Cc3ccccc3)[C@H](O)CNCc3cncc(C(C)(C)F)c3)cc(-c3ncco3)c2)n1` [Compound 38, N-((2S,3R)-4-((5-(2-fluoropropan-2-yl)pyridin-3-yl)methylamino)-3-hydroxy-1-phenylbutan-2-yl)-3-((R)-2-(4-methylthiazol-2-yl)pyrrolidine-1-carbonyl)-5-(oxazol-2-yl)benzamide] showed a Ki (memapsin 2) of under 100 nM and an IC50 [1] of under 300 nM.

`Cc1coc([C@H]2CCCN2C(=O)c2cccc(C(=O)N[C@@H](Cc3ccccc3)[C@H](O)CNCc3cncc(C(C)(C)F)c3)c2)n1` [Compound 39, N-((2S,3R)-4-((5-(2-fluoropropan-2-yl)pyridin-3-yl)methylamino)-3-hydroxy-1-phenylbutan-2-yl)-3-((R)-2-(4-methyloxazol-2-yl)pyrrolidine-1-carbonyl)benzamide] gave a Ki (memapsin 2) of under 100 nM and an IC50 [1] of under 300 nM.

`Cc1csc([C@H]2CCCN2C(=O)c2cc(C(=O)N[C@@H](Cc3ccccc3)[C@H](O)CNCc3cncc(C(C)(F)F)c3)cc(N(C)C)c2)n1` [Compound 40, N-((2S,3R)-4-((5-(1,1-difluoroethyl)pyridin-3-yl)methylamino)-3-hydroxy-1-phenylbutan-2-yl)-3-(dimethylamino)-5-((R)-2-(4-methylthiazol-2-yl)pyrrolidine-1-carbonyl)benzamide] gave a Ki (memapsin 2) of under 100 nM and an IC50 [1] of under 300 nM.

In the case of `Cc1csc([C@H]2CCCN2C(=O)c2cc(C(=O)N[C@@H](Cc3ccccc3)[C@H](O)CNCc3cccc(C(C)(C)C)c3)cc(N(C)C)c2)n1` [Compound 41, N-((2S,3R)-4-(3-tert-butylbenzylamino)-3-hydroxy-1-phenylbutan-2-yl)-3-(dimethylamino)-5-((R)-2-(4-methylthiazol-2-yl)pyrrolidine-1-carbonyl)benzamide], the Ki (memapsin 2) is reported as under 100 nM and the IC50 [1] is reported as under 300 nM.

In the case of `Cc1cc(C(=O)N[C@@H](Cc2ccccc2)[C@H](O)CNCc2cncc(C(C)(C)F)c2)cc(C(=O)N2CCC[C@@H]2c2nc(C)cs2)c1` [Compound 42, N-((2S,3R)-4-((5-(2-fluoropropan-2-yl)pyridin-3-yl)methylamino)-3-hydroxy-1-phenylbutan-2-yl)-3-methyl-5-((R)-2-(4-methylthiazol-2-yl)pyrrolidine-1-carbonyl)benzamide], the Ki (memapsin 2) is reported as under 100 nM and the IC50 [1] is reported as under 300 nM.

`Cc1csc([C@H]2CCCN2C(=O)c2cc(C(=O)N[C@@H](Cc3ccccc3)[C@H](O)CNCc3cncc(C(C)C)c3)cc(-c3cnccn3)c2)n1` [Compound 43, N-((2S,3R)-3-hydroxy-4-((5-isopropylpyridin-3-yl)methylamino)-1-phenylbutan-2-yl)-3-((R)-2-(4-methylthiazol-2-yl)pyrrolidine-1-carbonyl)-5-(pyrazin-2-yl)benzamide] was tested, and the Ki (memapsin 2) was under 100 nM and the IC50 [1] was under 300 nM.

Work on `Cc1csc([C@H]2CCCN2C(=O)c2cncc(C(=O)N[C@@H](Cc3ccccc3)[C@H](O)CNCc3cncc(C(C)(C)F)c3)c2)n1` [Compound 44, N-((2S,3R)-4-((5-(2-fluoropropan-2-yl)pyridin-3-yl)methylamino)-3-hydroxy-1-phenylbutan-2-yl)-5-((R)-2-(4-methylthiazol-2-yl)pyrrolidine-1-carbonyl)nicotinamide] yielded a Ki (memapsin 2) of under 100 nM and an IC50 [1] of under 300 nM.

In the case of `Cc1csc([C@H]2CCCN2C(=O)c2cccc(C(=O)N[C@@H](Cc3ccccc3)[C@H](O)CNCc3cncc(C(C)(C)F)c3)c2)n1` [Compound 45, N-((2S,3R)-4-((5-(2-fluoropropan-2-yl)pyridin-3-yl)methylamino)-3-hydroxy-1-phenylbutan-2-yl)-3-((R)-2-(4-methylthiazol-2-yl)pyrrolidine-1-carbonyl)benzamide], the Ki (memapsin 2) is reported as under 100 nM and the IC50 [1] is reported as under 300 nM.

Work on `Cc1csc([C@H]2CCCN2C(=O)c2cccc(C(=O)N[C@@H](Cc3ccccc3)[C@H](O)CN[C@H](C)c3cncc(C(C)C)c3)c2)n1` [Compound 46, N-((2S,3R)-3-hydroxy-4-((R)-1-(5-isopropylpyridin-3-yl)ethylamino)-1-phenylbutan-2-yl)-3-((R)-2-(4-methylthiazol-2-yl)pyrrolidine-1-carbonyl)benzamide] yielded a Ki (memapsin 2) of under 100 nM and an IC50 [1] of under 300 nM.

Work on `Cc1csc([C@H]2CCCN2C(=O)c2cc(C(=O)N[C@@H](Cc3ccccc3)[C@H](O)CNCc3cccc(Cl)c3)cc(N(C)C)c2)n1` [Compound 47, N-((2S,3R)-4-(3-chlorobenzylamino)-3-hydroxy-1-phenylbutan-2-yl)-3-(dimethylamino)-5-((R)-2-(4-methylthiazol-2-yl)pyrrolidine-1-carbonyl)benzamide] yielded a Ki (memapsin 2) of under 100 nM and an IC50 [1] of under 300 nM.

In the case of `Cc1csc([C@H]2CCCN2C(=O)c2cc(C(=O)N[C@@H](Cc3ccccc3)[C@H](O)CNCc3cc(Cl)cc(Cl)c3)cc(N(C)C)c2)n1` [Compound 48, N-((2S,3R)-4-(3,5-dichlorobenzylamino)-3-hydroxy-1-phenylbutan-2-yl)-3-(dimethylamino)-5-((R)-2-(4-methylthiazol-2-yl)pyrrolidine-1-carbonyl)benzamide], the Ki (memapsin 2) is reported as under 100 nM and the IC50 [1] is reported as under 300 nM.
